Our source for the IC50 values is US5955616A, “Pyrrolidine derivatives having phospholipase A2 inhibitory activity” (Shionogi & Co., Ltd., priority 1995, dated 1999).

The structures appear in SMILES notation.

A word on the IC50: it is the midpoint of a concentration-inhibition curve.

The target in one assay is T1, cPLA2 (Homo sapiens, UniProt P47712).
T1 sequence (P47712 1-749): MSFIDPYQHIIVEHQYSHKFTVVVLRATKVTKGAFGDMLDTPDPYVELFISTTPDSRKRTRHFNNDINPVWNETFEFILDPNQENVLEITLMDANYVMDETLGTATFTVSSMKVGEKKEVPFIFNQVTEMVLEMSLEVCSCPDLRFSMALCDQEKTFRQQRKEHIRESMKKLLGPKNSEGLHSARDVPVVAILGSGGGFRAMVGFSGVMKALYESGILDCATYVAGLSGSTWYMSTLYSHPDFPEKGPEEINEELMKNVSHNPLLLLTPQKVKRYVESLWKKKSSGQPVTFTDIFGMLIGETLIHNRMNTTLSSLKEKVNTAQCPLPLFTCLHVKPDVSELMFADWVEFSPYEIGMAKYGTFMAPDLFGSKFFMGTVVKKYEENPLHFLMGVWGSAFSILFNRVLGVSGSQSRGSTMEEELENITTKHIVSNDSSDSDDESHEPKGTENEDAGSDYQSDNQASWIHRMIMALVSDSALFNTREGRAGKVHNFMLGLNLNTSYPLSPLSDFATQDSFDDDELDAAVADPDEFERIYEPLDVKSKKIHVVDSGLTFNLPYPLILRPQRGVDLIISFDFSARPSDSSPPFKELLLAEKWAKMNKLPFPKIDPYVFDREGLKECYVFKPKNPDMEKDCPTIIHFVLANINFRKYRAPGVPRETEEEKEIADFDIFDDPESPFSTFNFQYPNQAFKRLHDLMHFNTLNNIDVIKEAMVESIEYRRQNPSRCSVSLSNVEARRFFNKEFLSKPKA
Put plainly: cPLA2 Inhibitory activity (release of radiolabelled fatty acid from liposomes). The class given is biochemical. The conditions noted are these: 50 mM HEPES pH 7.4, 1 mM CaCl2, 2.5 μM radio-labeled phosphatidylcholine, 15 min at 37° C; read-out: cPLA2 Inhibition Activity IC50. How it is done:
Experiment 1 cPLA2 Inhibitory activity
The compounds of the present invention was tested for the cPLA2 inhibitory activity by a method known in a literature (R. M. Kramer, E. F. Roberts, J. Manetta and J. E. Putnam, J. Biol. Chem., 268(8), 5268-5272 ([…])), as outlined below.
As a substrate, liposomes which contain 1-palmitoyl-2-[^14 C]-arachidonoyl-sn-glycero-3-phosphocholine and sn-1,2-dioleoylglycerol at the ratio of 2:1 and have treated ultrasonically were used. The substrate was added to a 50 mM HEPES buffer (pH 7.4) (200 μl) containing 1 mM CaCl2, 2 mM dithiothreitol, 150 mM NaCl, 0.1 mg/ml BSA so as to make the concentration of radio-labeled phosphatidylcholine 2.5 μM. To the solution was added a compound of the present invention in DMSO (10 μl) to obtain reaction solutions each containing the test compound at 250 μM, 50 μM, 10 μm, 2 μM, and 0.4 μM. The reaction was allowed to start by adding an enzyme (cPLA2) (4 ng) and continued for 15 min at 37° C.
The amount of fatty acids released by the reaction was measured on a liquid scintillation counter. Control was obtained by conducting the experiment in the same manner except that a compound of the present invention was not added. The inhibitory activity was expressed as percent (%) to the control value, which was used for the calculation of the concentration required for 50% inhibition (IC50, μM).

Assay [1] relates to Prostaglandin E2 production in human fibroblasts. Put plainly: Inhibition of Production of Prostaglandin E2 in Human Fibroblasts (IL-1 stimulated). The class given is cell-based. The note with it: Fibroblast, stimulation with IL-1, read-out: Inhibitory activity Against the Production of Prostaglandin E2 in Human Fibroblasts IC50. How it is done:
Experiment 2 Inhibition of Production of Prostaglandin E2 in Human Fibroblasts
From this viewpoint, the compounds of the present invention were tested for the effect on the production of prostaglandin E2 by human fibroblasts under the stimulation with IL-1 according to the method of J. M. Dayer et al (CACHECTIN/TUMOR NECROSIS FACTOR STIMULATES COLLAGENASE AND PROSTAGLANDIN E2 PRODUCTION BY HUMAN SYNOVIAL CELLS AND DERMAL FIBROBLASTS; J. M. Dayer, B. Beutlerm and A. Cerami, J. Exp. Med., 162,2163-2168, 1985).

Consider `O=C1NC(=O)C(=Cc2ccc(NC(=O)[C@@H]3C[C@H](SCc4ccccc4)CN3C(=O)c3ccccc3)cc2)S1` [Compound A-3], for which the figures for the IC50 (on cPLA2; in assay [1]) were 5.3 µM and 2.4 µM, respectively. With `COc1c(C(C)(C)C)cc(CS[C@H]2C[C@@H](C(=O)Nc3ccc(C=C4SC(=O)NC4=O)cc3)N(C(=O)c3ccccc3)C2)cc1C(C)(C)C` [Compound A-4], the IC50 was 1.6 µM on cPLA2 and 4.9 µM in assay [1]. For `O=C1NC(=O)C(=Cc2ccc(NC(=O)[C@@H]3C[C@H](SCc4ccc5ccccc5c4)CN3C(=O)c3ccccc3)cc2)S1` [Compound A-5], the results for the IC50 (on cPLA2; in assay [1]) were 3.6 µM and 7 µM, respectively. For `O=C1NC(=O)C(=Cc2ccc(NC(=O)[C@@H]3C[C@H](SCc4ccc(-c5ccccc5)cc4)CN3C(=O)c3ccccc3)cc2)S1` [Compound A-6], the IC50 at cPLA2 was 3.3 µM; in assay [1] it was 8.2 µM. As for `O=C1NC(=O)C(=Cc2ccc(NC(=O)[C@@H]3C[C@H](SCc4ccc(C(F)(F)F)cc4)CN3C(=O)c3ccccc3)cc2)S1` [Compound A-7], the IC50 came out at 5.3 µM at cPLA2 and 4.5 µM in assay [1]. As for `O=C1NC(=O)C(=Cc2ccc(NC(=O)[C@@H]3C[C@H](SCc4ccc(C(F)(F)F)cc4C(F)(F)F)CN3C(=O)c3ccccc3)cc2)S1` [Compound A-8], the IC50 amounted to 4.8 µM on cPLA2 and 2.5 µM in assay [1]. For the compound `COc1cc(CS[C@H]2C[C@@H](C(=O)Nc3ccc(C=C4SC(=O)NC4=O)cc3)N(C(=O)c3ccccc3)C2)cc(OC)c1OC` [Compound A-9], the IC50 at cPLA2 was 5.1 µM; in assay [1], 3 µM. As to `CC(C)=CCCC(C)=CCS[C@H]1C[C@@H](C(=O)Nc2ccc(C=C3SC(=O)NC3=O)cc2)N(C(=O)c2ccccc2)C1` [Compound A-11], the concentration for half-maximal inhibition (IC50) on cPLA2 worked out at 4.7 µM; in assay [1] it was 8.5 µM.

With `O=C1NC(=O)C(=Cc2ccc(NC(=O)[C@@H]3C[C@H](SC(c4ccccc4)c4ccccc4)CN3C(=O)c3ccccc3)cc2)S1` [Compound A-12], the results for the half-inhibitory concentration (IC50) (on cPLA2; in assay [1]) were 1.3 µM and 1.6 µM, respectively.

Regarding `CC(C)S[C@H]1C[C@@H](C(=O)Nc2ccc(C=C3SC(=S)NC3=O)cc2)N(C(=O)OC(C)(C)C)C1` [Compound A-16], the IC50 is 22 µM on cPLA2 and 2.9 µM in assay [1]. As for `CC(C)(C)OC(=O)N1C[C@@H](SCc2ccccc2)C[C@H]1C(=O)Nc1ccc(C=C2SC(=S)NC2=O)cc1` [Compound A-17], the IC50 is 6 µM on cPLA2 and 3.2 µM in assay [1]. The corresponding values for `CS[C@H]1C[C@@H](C(=O)Nc2ccc(C=C3SC(=O)NC3=O)cc2)N(C(=O)c2ccc(-c3ccccc3)cc2)C1` [Compound A-20] are 22 µM and 0.3 µM. With `CS[C@H]1C[C@@H](C(=O)Nc2ccc(C=C3SC(=S)NC3=O)cc2)N(C(=O)c2ccc(-c3ccccc3)cc2)C1` [Compound A-21], the values for the concentration for half-maximal inhibition (IC50) (on cPLA2; in assay [1]) were 18 µM and 1 µM, respectively.

Turning to `O=C1NC(=S)SC1=Cc1ccc(NC(=O)[C@@H]2C[C@H](SCc3ccccc3)CN2C(=O)c2cccnc2)cc1` [Compound A-23], the IC50 on cPLA2 is 10 µM; in assay [1], 8.6 µM. In the case of `O=C1NC(=S)SC1=Cc1ccc(NC(=O)[C@@H]2C[C@H](SCc3ccccc3)CN2C(=O)c2ccncc2)cc1` [Compound A-24], the IC50 on cPLA2 came out at 9.2 µM; in assay [1] it was 4.9 µM.

Regarding `CS[C@H]1C[C@@H](C(=O)Nc2ccc(C=C3SC(=O)NC3=O)cc2)N(C(=O)Cc2ccc(Br)cc2)C1` [Compound A-25], the IC50 is 18 µM at cPLA2 and 8 µM in assay [1].

For the compound `CS[C@H]1C[C@@H](C(=O)Nc2ccc(C=C3SC(=S)NC3=O)cc2)N(C(=O)Cc2ccc(Br)cc2)C1` [Compound A-26], the IC50 on cPLA2 is 2.8 µM; in assay [1] it was 1.8 µM. The corresponding values for `CC(C)S[C@H]1C[C@@H](C(=O)Nc2ccc(C=C3SC(=S)NC3=O)cc2)N(C(=O)Cc2ccc(Br)cc2)C1` [Compound A-27] are 5.1 µM and 2.6 µM. Consider `O=C1NC(=S)SC1=Cc1ccc(NC(=O)[C@@H]2C[C@H](SCc3ccccc3)CN2C(=O)Nc2ccccc2)cc1` [Compound A-28], for which the IC50 amounted to 8.3 µM at cPLA2 and 0.73 µM in assay [1]. The corresponding values for `O=C1NC(=S)SC1=Cc1ccc(NC(=O)[C@@H]2C[C@H](SCc3ccccc3)CN2C(=S)Nc2ccccc2)cc1` [Compound A-29] are 5.9 µM and 1.2 µM.

Take `CCCCNC(=O)N1C[C@@H](SCc2ccccc2)C[C@H]1C(=O)Nc1ccc(C=C2SC(=S)NC2=O)cc1` [Compound A-30]: the IC50 at cPLA2 was 16 µM; in assay [1], 0.51 µM. The corresponding values for `CC(=O)Nc1c(Cl)cc(S(=O)(=O)N2C[C@@H](SCc3ccccc3)C[C@H]2C(=O)Nc2ccc(/C=C3\SC(=S)NC3=O)cc2)cc1Cl` [Compound A-37] are 1.6 µM and 6.9 µM. As to `O=C1NC(=S)S/C1=C\c1ccc(NC(=O)[C@@H]2C[C@H](SCc3ccccc3)CN2S(=O)(=O)Cc2c(Cl)cccc2Cl)cc1` [Compound A-53], the half-maximal inhibitory concentration (IC50) in assay [1] amounted to 0.83 µM.

With `O=C1NC(=O)C(=C(CO)c2ccc(NC(=O)[C@@H]3C[C@H](SCc4ccccc4)CN3C(=O)Cc3ccc(Br)cc3)cc2)S1` [Compound D-3], the IC50 in assay [1] amounted to 7.1 µM. Take `CC(=O)Oc1ccc(OC(C)=O)c(CCCCCCC(=O)N2C[C@@H](OC(c3ccccc3)c3ccccc3)C[C@H]2CNC(=O)c2ccc(/C=C3\SC(=O)NC3=O)cc2)c1` [Compound H-15]: the IC50 on cPLA2 was determined as 11 µM. Regarding `O=C1NC(=O)/C(=C/c2ccc(S(=O)(=O)NC[C@@H]3CC(OCc4ccc(F)cc4F)CN3S(=O)(=O)Cc3ccc(Br)cc3)cc2)S1` (stereo partly drawn) [Compound H-19], the IC50 on cPLA2 is 8.6 µM. Still for that read-out and setting: with `O=C1NC(=O)/C(=C/c2ccc(S(=O)(=O)NC[C@@H]3CC(OCc4ccc(F)cc4F)CN3S(=O)(=O)c3ccc(Cc4ccccc4)cc3)cc2)S1` (stereo partly drawn) [Compound H-20] the figure was 6.6 µM; with `O=C1NC(=O)C(=C(CO)c2ccc(NC(=O)[C@@H]3CC(OC(c4ccccc4)c4ccccc4)CN3C(=O)c3ccccc3)cc2)S1` (stereo partly drawn) [Compound I-1], 26 µM; with `O=C1NC(=O)C(=C(CO)c2ccc(NC(=O)C3CC(OC(c4ccccc4)(c4ccccc4)c4ccccc4)CN3C(=O)c3ccccc3)cc2)S1` (stereo not drawn) [Compound I-2], 3.5 µM. `O=C1NC(=O)/C(=C/c2ccc(NC(=O)[C@@H]3C[C@H](NCc4ccccc4)CN3C(=O)Cc3ccc(Br)cc3)cc2)S1` [Compound J-1]: the half-inhibitory concentration (IC50) at cPLA2 was determined as 21 µM.

As for `O=C1NC(=S)S/C1=C\c1ccc(NC(=O)[C@@H]2CCCN2C(=O)Cc2ccc(Br)cc2)cc1` [Compound L-1], the 50% inhibitory concentration (IC50) on cPLA2 turned out to be 5.3 µM. The same measure, in the same setting: with `O=C1NC(=O)/C(=C/c2ccc(NC(=O)[C@@H]3C[C@@H](SCc4ccccc4)CN3S(=O)(=O)c3ccc(-c4ccccc4)cc3)cc2)S1` [Compound M-1] the figure was 23 µM; with `O=C1NC(=O)/C(=C/c2ccc(NC(=O)[C@H]3C[C@H](SCc4ccccc4)CN3S(=O)(=O)c3ccc(-c4ccccc4)cc3)cc2)S1` [Compound M-2], 15 µM; with `O=C1NC(=O)/C(=C/c2ccc(NC(=O)[C@H]3C[C@@H](SCc4ccccc4)CN3S(=O)(=O)c3ccc(-c4ccccc4)cc3)cc2)S1` [Compound M-3], 10 µM. Turning to `O=C1NC(=O)C(=Cc2ccc(COC3CC(CNC(=O)c4ccc(-c5ccccc5)cc4)N(C(=O)c4ccccc4)C3)cc2)S1` (stereo not drawn) [Compound N-1], the IC50 on cPLA2 came to 6.6 µM.
